Experimental data as given in patent US11691960B2, “2-[thiophen-2-yl)formamido]-N-(phenyl)-2-methylpropanamide derivatives and the use thereof as medicament” (Boehringer Ingelheim International GmbH, priority 2020, dated 2023).
pIC50: −log10 of the molar value.

Columns and labels:
[1] = molecular target: human Factor Xa (Homo sapiens (Human), UniProt P00742); experiment: Assay C: human Factor Xa chromogenic substrate assay; type: biochemical; settings: for pIC50: human Factor Xa 0.86 nM, chromogenic substrate S2765; for Selectivity Assay C/Assay A: ratio IC50 Factor Xa / IC50 IDO1
Sequence of human Factor Xa (P00742 235-488): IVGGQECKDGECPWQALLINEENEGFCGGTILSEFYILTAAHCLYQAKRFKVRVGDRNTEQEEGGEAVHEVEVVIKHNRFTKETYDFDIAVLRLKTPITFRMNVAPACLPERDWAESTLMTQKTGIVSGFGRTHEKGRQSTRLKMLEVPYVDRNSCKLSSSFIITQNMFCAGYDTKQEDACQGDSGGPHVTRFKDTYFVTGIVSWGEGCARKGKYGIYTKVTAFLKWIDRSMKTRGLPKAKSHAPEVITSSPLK
Sequence of human Factor Xa (P00742 41-179 partner): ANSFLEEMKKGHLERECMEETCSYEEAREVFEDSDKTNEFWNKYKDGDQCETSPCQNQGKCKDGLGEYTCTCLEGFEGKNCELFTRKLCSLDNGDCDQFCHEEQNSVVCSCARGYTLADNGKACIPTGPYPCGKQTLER
Description: Assay C. In Vitro Testing of Human Factor Xa Potency:
Measurement of active human Factor Xa using a specific chromogenic substrate which is labeled with a p-nitro-anilino group (pNA). The cleavage in between the binding of the peptide substrate and the pNA-group is followed by a color change, which can be detected at 405 nm. The amount of cleaved substrate is directly proportional to the amount of active Xa.
[…] (100 U) human Factor Xa (Enzyme Research Laboratories; HFXa1011) were solved in 0.444 ml H2O (Millipore), which accords to a stock solution of 19.28 μM or 225 U/ml. Further dilutions were made in the assay buffer (Tris 100 mM, NaCL 150 mM, adjusted to a pH of 7.8 with HCL, containing 0.1% BSA and 0.05% Tween20). 25 mg (1 vial) of the chromogenic substrate S2765 (Chromogenix; S2765) was solved in 3.5 ml H2O (Millipore) to achieve a stock solution of 10 mM.
Compounds were solved and diluted in DMSO where the final dilution in the assay is 1:10 resulting in a final concentration of 1% DMSO.
• the prefinal dilution step was 1:10 in the assay buffer containing 11% DMSO resulting in 10% DMSO • final dilution in the assay is 1:10 resulting in a final concentration of 1% DMSO
Compounds were tested at final concentrations of 10 μM to 0.003 nM or lower. 5 μl human factor Xa (final concentration 0.86 nM), 2 μl compound dilution or assay buffer (containing 10% DMSO) and 8 μl assay buffer were pipetted in triplicates into a 384-well plate and incubated in the Thermomix at 24° C. for 10 minutes.
After addition of 5 μl chromogenic substrate (final concentration 0.5 mM) the enzyme-substrate reaction started and the kinetic measurement with the SpectraMax Monochromator was started within 1-2 minutes. • Parameter of measurement: (Spectra ax, Monochromator) • Absorbance; 1.LM 405 nM • Kinetic: 16 min each 2nd minute (9 times) • Negative Control (NC) 5 μl human factor Xa+10 μl assay buffer+5 μl Substrate • Positive Control (PC): 5 μl human factor Xa+2 μl Nafamostat (commercially available, final concentration: 1 μM)+8 μl assay buffer+5 μl Substrate • Blank (optional): 15 μl assay buffer+5 μl Substrate
Calculation of IC50, KI and the % effect at the highest concentration (Ratio)
For the calculation the average of the Vmax-values in between 120 sec to 720 sec were taken.
A x/y-Plot was created: x=log (M, Compound); y=vmax (drfu/min)
The data were analyzed with the curve fitting model: log (inhibitor) vs. response—Variable slope (four parameters)
The results of this fit were Top, Bottom, Log (IC50, M), Hillslope and IC50 (M)

[2] = system: human hepatocytes; experiment: Assay D: metabolic stability in human hepatocytes; type: in vitro ADME; settings: for Hepatocyte stability Assay D: human hepatocytes, 1 μM, % of liver blood flow, mean +− standard deviation
Description: Assay D. Assessment of Metabolic Stability in Human Hepatocytes
The metabolic degradation of the test compound is assayed in a hepatocyte suspension. After recovery from cryopreservation, human hepatocytes are incubated in Dulbecco's modified eagle medium supplemented with 3.5 μg glucagon/500 mL, 2.5 mg insulin/500 mL and 3.75 mg/500 mL hydrocortisone) containing 5% or 50% human serum or in absence of serum.
Following a 30 min preincubation in a cell culture incubator (37° C., 10% CO2), 5 μl of test compound solution (80 μM; derived from a 2 mM DMSO stock solution by dilution 1:25 with medium) are added into 395 μl hepatocyte suspension, resulting in a final cell density of 1 Mio cells/mL, a final test compound concentration of 1 μM, and a final DMSO concentration of 0.05%.
The cells are incubated for six hours (incubator, orbital shaker) and samples (25 μl) are removed from the incubation after 0, 0.5, 1, 2, 4 and 6 hours. Samples are transferred into acetonitrile and pelleted by centrifugation (5 min). The supernatant is transferred to a new 96-deepwell plate, evaporated under nitrogen and resuspended prior to analysis of decline of parent compound by HPLC-MS/MS.
CLint is calculated as follows: CL_INTRINSIC=k/CD×1000/60 k: slope of the regression line for parent decline [h^−1], CD: cell density of vital cells [10e6 cells/mL],
The calculated in vitro hepatic intrinsic clearance is scaled up to the intrinsic in vivo hepatic Clearance and used to predict hepatic in vivo blood clearance (CL) by the use of a liver model (well stirred model): CL_INTRINSIC_INVIVO [ml/min/kg]=(CL_INTRINSIC [μL/min/10e6 cells]×hepatocellularity [10e6 cells/g liver]×liver factor [g/kg bodyweight])/1000 CL[ml/min/kg]=CL_INTRINSIC_INVIVO [ml/min/kg]×hepatic blood flow [ml/min/kg]/(CL_INTRINSIC_INVIVO[ml/min/kg]+hepatic blood flow [ml/min/kg])
Results are expressed as percentage of hepatic blood flow: QH[%]=CL[ml/min/kg]/hepatic blood flow [ml/min/kg])
Hepatocellularity, human: 120×10e6 cells/g liver
Liver factor, human: 25.7 g/kg bodyweight
Blood flow, human: 20.7 ml/(min×kg)

[3] = molecular target: human androgen receptor (Homo sapiens (Human), UniProt P10275); experiment: Assay B: human androgen receptor luciferase reporter assay (Indigo Biosciences); type: cell-based; settings: for Selectivity Assay B/Assay A: ratio IC50 androgen receptor / IC50 IDO1
Sequence of human androgen receptor (P10275 whole entry): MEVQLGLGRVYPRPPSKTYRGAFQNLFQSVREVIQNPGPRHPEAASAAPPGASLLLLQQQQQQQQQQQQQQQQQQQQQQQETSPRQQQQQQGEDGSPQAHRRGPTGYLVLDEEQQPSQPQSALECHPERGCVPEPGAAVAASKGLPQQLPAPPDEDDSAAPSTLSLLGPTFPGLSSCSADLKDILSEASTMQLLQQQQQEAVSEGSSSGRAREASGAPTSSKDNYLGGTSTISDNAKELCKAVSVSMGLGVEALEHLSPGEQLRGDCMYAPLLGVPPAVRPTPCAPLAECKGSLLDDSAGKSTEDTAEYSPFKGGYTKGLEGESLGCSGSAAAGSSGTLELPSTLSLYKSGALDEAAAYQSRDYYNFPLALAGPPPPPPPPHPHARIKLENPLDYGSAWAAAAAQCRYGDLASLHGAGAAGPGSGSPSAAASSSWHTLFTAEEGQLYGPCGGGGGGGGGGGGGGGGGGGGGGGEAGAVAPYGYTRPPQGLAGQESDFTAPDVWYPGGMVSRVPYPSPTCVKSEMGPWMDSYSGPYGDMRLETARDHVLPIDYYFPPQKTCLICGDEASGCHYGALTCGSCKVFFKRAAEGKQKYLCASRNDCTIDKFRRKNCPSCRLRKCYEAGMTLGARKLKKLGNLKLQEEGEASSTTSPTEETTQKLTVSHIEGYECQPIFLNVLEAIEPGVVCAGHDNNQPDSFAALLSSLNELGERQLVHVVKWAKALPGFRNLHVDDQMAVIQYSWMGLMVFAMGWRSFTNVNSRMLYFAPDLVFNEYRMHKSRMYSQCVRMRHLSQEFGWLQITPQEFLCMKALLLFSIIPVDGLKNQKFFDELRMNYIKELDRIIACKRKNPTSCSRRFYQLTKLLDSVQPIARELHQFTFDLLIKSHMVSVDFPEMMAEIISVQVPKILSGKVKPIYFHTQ
Excerpt: Assay B. In Vitro Testing of Androgen Receptor Potency:
The human androgen receptor (AR) assay was run using Product #IB03001 from Indigo Biosciences. The cell line provided in this kit carries a reporter gene, induced upon AR stimulation. This reporter gene is cDNA encoding for beetle luciferase, a 62 kD protein originating from the North American firefly (Photinus pyralis). This luciferase catalyzes the mono-oxidation of D-luciferin yielding oxyluciferin, adenosine monophosphate, pyrophosphate, CO2, and photon emission. The luminescence intensity of the reaction is quantified using a luminometer.
To run the assay, the cells are thawed by adding pre-warmed cell recovery medium to each tube, then placed in a 37° C. water bath. 30000 viable cells in 200 μl are plated (collagen coated plates) and incubated at 37° C., ≥85% humidity, 5% CO2 for 24 hours. Media is replaced with compound screening medium. Cells are then challenged with 125 pM (EC80) 6a-Fl Testosterone and compounds are applied in half logarithmic dilutions from 10 μM to 10 nM. Assay plates are then incubated at 37° C., ≥85% humidity, 5% CO2 for 22-24 hours. Media is replaced with luciferase detection reagent and allowed 5 minutes to equilibrate prior to luminescence quantification.
Data Analysis consisted of calculating percentage of control between 100% (Negative control:6a-Fl Testosterone) and 0 (positive control: no 6a-FL Testosterone). Fitting of normalized values was made 4-Parameter sigmoidal binding curve (Log[conc]) vs. signal.

| SMILES | inhibition of the human Factor Xa enzyme (in words) [1] | pIC50 [1] | Selectivity Assay C/Assay A [1] | pIC50 ([3]; challenge with 125 pM (EC80) 6a-Fl Testosterone, mean +− standard deviation) | Hepatocyte stability Assay D [2] [% QH] | metabolic stability in human hepatocytes (in words) [2] | antiandrogenic activity (in words) [3] | Selectivity Assay B/Assay A [3] |
| --- | --- | --- | --- | --- | --- | --- | --- | --- |
| Cc1ccc(C(=O)NC(C)(C)C(=O)Nc2ccc(C#N)c(C(F)(F)F)c2)s1 [WO98/22432 example 86] |  |  |  |  |  | very low metabolic stability | have antiandrogenic activity | 4.9 |
| CC(C)(NC(=O)c1cccs1)C(=O)Nc1ccc(C#N)c(C(F)(F)F)c1 [WO98/22432 example 53] |  |  |  |  |  | very low metabolic stability | have antiandrogenic activity | 0.7 |
| CC(C)(NC(=O)c1ccc(Br)s1)C(=O)Nc1ccc(Cl)c(F)c1 [Example 1, 2-[(5-bromothiophen-2-yl)formamido]-N-(4-chloro-3-fluorophenyl)-2-methylpropanamide] |  | < 5.00 | >57 |  | <4.1 |  |  | 43 |

The next lines start with results.

| inhibition of the human Factor Xa enzyme (in words) [1] | pIC50 [1] | Selectivity Assay C/Assay A [1] | pIC50 ([3]; challenge with 125 pM (EC80) 6a-Fl Testosterone, mean +− standard deviation) | Hepatocyte stability Assay D [2] [% QH] | SMILES | metabolic stability in human hepatocytes (in words) [2] | antiandrogenic activity (in words) [3] | Selectivity Assay B/Assay A [3] |
| --- | --- | --- | --- | --- | --- | --- | --- | --- |
| inhibits the human Factor Xa enzyme | 6.37 | 0.37 |  |  | CC1CCC(C)N1c1ccc(NC(=O)C(C)(C)NC(=O)c2ccc(Cl)s2)cc1 (stereo not shown) [WO2005/111013 Ex. 22] | medium metabolic stability |  |  |
|  | < 5.00 | >52 | < 5.00 | <4.1 | CC(C)(NC(=O)c1ccc(Br)s1)C(=O)Nc1ccc(Br)cc1 [Example 2, 2-[(5-bromothiophen-2-yl)formamido]-N-(4-bromophenyl)-2-methylpropanamide] |  |  | >52 |
